Converted amounts (≈) assume the structure as drawn.
Assays:
[1] = Intrinsic clearance in human liver microsomes; type: ADME, Microsome
[2] = Equilibrium solubility of the compound at pH 7.4; type: physicochemical; details: buffer
[3] = Plasma concentration in mouse at 10 mg/kg, ip after 30 mins; type: ADME, organism-based; parameters: dose 10 mg/kg, route intraperitoneal
[4] = Plasma concentration in mouse at 30 mg/kg, ip after 30 mins; type: ADME, organism-based; parameters: dose 30 mg/kg, route intraperitoneal
[5] = Plasma concentration in mouse at 60 mg/kg, ip after 30 mins; type: ADME, organism-based; parameters: dose 60 mg/kg, route intraperitoneal
[6] = Ratio of drug level in brain to plasma in mouse at 10 mg/kg, ip after 30 mins; type: ADME, organism-based; parameters: dose 10 mg/kg, route intraperitoneal; details: read-out: BPR
[7] = Ratio of drug level in brain to plasma in mouse at 30 mg/kg, ip after 30 mins; type: ADME, organism-based; parameters: dose 30 mg/kg, route intraperitoneal; details: read-out: BPR
[8] = Ratio of drug level in brain to plasma in mouse at 60 mg/kg, ip after 30 mins; type: ADME, organism-based; parameters: dose 60 mg/kg, route intraperitoneal; details: read-out: BPR

Row | SMILES | microsomal CLint [1] | solubility thermodynamic [2] | concentration at 0.5 h [3] | concentration at 0.5 h [4] | concentration at 0.5 h [5] | Kp at 0.5 h [6] | Kp at 0.5 h [7] | Kp at 0.5 h [8]
1 | COc1cc(F)ccc1-c1cncc(CNC(=O)c2ccccn2)c1 | 45 µL/min/mg | – | – | – | – | – | – | –
2 | COc1cc(F)ccc1-c1cncc(CNCC2CC2)n1 | 108 µL/min/mg | 340 µM (≈ 97.7 µg/mL) | – | – | – | – | – | –
3 | C[C@@H]([C@@H](O)c1ccc(O)cc1)N1CCC(O)(c2ccccc2)CC1 [TRAXOPRODIL] | 37 µL/min/mg | > 470 µM | – | – | – | – | – | –

Continued, values first:

Row | microsomal CLint [1] | solubility thermodynamic [2] | concentration at 0.5 h [3] | concentration at 0.5 h [4] | concentration at 0.5 h [5] | Kp at 0.5 h [6] | Kp at 0.5 h [7] | Kp at 0.5 h [8] | SMILES
4 | 64 µL/min/mg | 63 µM (≈ 21.3 µg/mL) | – | – | – | – | – | – | COc1cc(F)ccc1-c1cncc(CNC(=O)c2cnccn2)c1
5 | 74 µL/min/mg | > 450 µM | 867 nM | 2320 nM | 3370 nM | 10.9 | 13.6 | 12.6 | COc1cc(F)ccc1-c1cncc(CNC2CCCC2)c1

From ChEMBL document CHEMBL1777674, “2,6-Disubstituted pyrazines and related analogs as NR2B site antagonists of the NMDA receptor with anti-depressant activity” (Bioorg Med Chem Lett, 2011)
